Consider 4 molecules from paper PMC2999460, “Porphobilinogen Synthase from the Butterfly, Pieris brassicae: Purification and Comparative Characterization” (2007).

Series [1] has as its target T1, porphobilinogen synthase (PBGS) (Pieris brassicae, UniProt A0A9P0XHI4).
T1 construct: gene PIBRA_LOCUS11261
T1 sequence (A0A9P0XHI4 1-333): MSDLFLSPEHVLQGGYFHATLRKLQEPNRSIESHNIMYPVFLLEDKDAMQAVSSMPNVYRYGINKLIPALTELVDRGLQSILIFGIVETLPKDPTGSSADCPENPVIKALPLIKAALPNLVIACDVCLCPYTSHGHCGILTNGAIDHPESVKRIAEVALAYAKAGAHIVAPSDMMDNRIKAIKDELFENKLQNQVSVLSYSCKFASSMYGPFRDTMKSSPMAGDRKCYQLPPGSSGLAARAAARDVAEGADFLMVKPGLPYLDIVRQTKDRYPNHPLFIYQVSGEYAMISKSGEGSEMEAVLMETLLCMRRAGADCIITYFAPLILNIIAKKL
The experiment in a line: biochemical.

In series [2] the target is T1, porphobilinogen synthase (PBGS). Nature of the series: enzyme activity assay (PBG formation, Ehrlich's reagent, […] nm), Lineweaver-Burk analysis. In kind it is biochemical.
For series [3], the target named is porphobilinogen synthase (PBGS) from Pieris brassicae (Pieris brassicae (endogenous in adult insects)). Nature of the series: native gel or EMSA; native PAGE at 4.5, 6.0, 7.5 and 9.75% polyacrylamide (Hedrick and Smith; buffer system of Davis) with reference proteins: 292.3 kDa for the holoenzyme, set against 36.5 kDa for the subunit by SDS/urea-PAGE; purified PBGS and a partially purified preparation.

Substrate in the series “purified protein”: NCC(=O)CCC(=O)O
The experiment in a line: purified protein. As to conditions: zinc active site.

Broadly, the Ki is the dissociation constant of the complex between target and ligand, obtained from inhibition or displacement. The low end stands for higher affinity, the high end for lower affinity. Take `CC(=O)CCC(=O)O` [LA, levulinic acid]: the affinity in series [1] corresponds to a Ki of 340 µM.
The term IC50 denotes the point on the concentration scale where inhibition reaches its midpoint. Read a low IC50 as inhibition by little substance. `CC(=O)CC(=O)CCC(=O)O` [SA, 4,6-dioxo-heptanoic acid] returned a half-inhibitory concentration (IC50) in series [2] of 4.5 µM.
What is called stoichiometry N is the number of molecules, sites or subunits per partner or assembly. “porphobilinogen synthase (PBGS) from Pieris brassicae (enzyme)”: the stoichiometry N in series [3] amounted to 8.

B1: porphobilinogen synthase (PBGS) (Pieris brassicae) (protein)
chain: MSDLFLSPEHVLQGGYFHATLRKLQEPNRSIESHNIMYPVFLLEDKDAMQAVSSMPNVYRYGINKLIPALTELVDRGLQSILIFGIVETLPKDPTGSSADCPENPVIKALPLIKAALPNLVIACDVCLCPYTSHGHCGILTNGAIDHPESVKRIAEVALAYAKAGAHIVAPSDMMDNRIKAIKDELFENKLQNQVSVLSYSCKFASSMYGPFRDTMKSSPMAGDRKCYQLPPGSSGLAARAAARDVAEGADFLMVKPGLPYLDIVRQTKDRYPNHPLFIYQVSGEYAMISKSGEGSEMEAVLMETLLCMRRAGADCIITYFAPLILNIIAKKL
In general, Km refers to the substrate concentration at which the rate is half of its maximum. Take B1: in “purified protein”, the Km amounted to 360 µM.
